We go through two molecules from US12485178B2, “Bifunctional small molecules to target the selective degradation of circulating proteins” (YALE UNIVERSITY, priority 2018, dated 2025).

Assay [1] has as its target T1, human MIF (Homo sapiens, UniProt P14174).
T1 sequence (P14174 2-115 limits assumed): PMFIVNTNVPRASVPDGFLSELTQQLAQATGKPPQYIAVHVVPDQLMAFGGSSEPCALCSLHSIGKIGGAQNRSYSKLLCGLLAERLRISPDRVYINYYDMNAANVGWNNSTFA
Kind of assay: Depletion of human MIF from supernatant of cultured HepG2 cells (sandwich ELISA). It counts as cell-based. The note with it: 100 nM huMIF, after 24 hours. As for the experimental part: In an experiment the results of which are presented in FIG. 3, bifunctional molecules were able to deplete human MIF from the supernatant of culture HepG2 cells. Briefly, human MIF (100 nM) was added to cell culture media in the presence of negative control MIF inhibitor 3w as well as bifunctional molecules MIF-NVS-PEGn-GN3, MIF-GN3, MIF-PEGn-Gn3, MIF-AcF3-1, MIF-AcF3-2, and MIF-AcF3-3. All molecules utilized a known MIF-binding ligand. Experiments were performed in 96 well plates (approximate surface area 0.3 cm^2). HepG2 cells were grown to 90% confluency in RPMI media, then washed with PBS (2×) and treated with serum-free media (optimem+0.1% BSA, +Pen/Strep) containing 100 nM huMIF (Cayman Chemical) and compounds (when applicable). Compounds were diluted from 1 mM stock solutions in DMSO. After 24 hours, a sample of the supernatant (2 uL) was collected, diluted 1:100, and analyzed for MIF content by sandwich ELISA (and incubated for 24 hours in the presence or absence of compound). Remaining MIF levels were determined by sandwich ELISA (biolegend monoclonal anti-MIF and biotinylated anti-MIF antibodies). Data represents the average of at least 3 biological replicates, and error bars represent a standard deviation. After 24 hours, up to 95.3% of the MIF had been depleted from cell culture media (in the case of MIF-AcF3-3).
(In general: In an ELISA, binding on a coated surface is turned into a signal by an enzyme label.)

Assay [2] addresses T1, human MIF. Nature of the assay: Trafficking of MIF internalized by HepG2 cells to lysosomes (immunofluorescence colocalization). It counts as cell-based. The settings on record: 100 nM rhuMIF, 200 nM compound, 12 hours. On the procedure: In this experiment, cells were incubated with rhuMIF (Cayman) at a concentration of 100 nM with 200 nM MIF-GN3.
The target of assay [3] is T1, human MIF. Kind of assay: Depletion of injected human MIF from mice (serum sandwich ELISA). It counts as in vivo, mouse. As for the experimental part:
Human MIF has a half-life of approximately 40 minutes in mice. In this experiment, human recombinant MIF (Cayman chemical) was co-injected into mice with an anti-DNP IgG, which was used as an injection positive control. In particular, nude mice were injected with 5 μg recombinant human MIF and 200 μg anti-DNP IgG as an injection control (FIG. 4). MIF-GN3 was then injected at the concentration shown and blood drawn every twenty minutes over the course of two hours. Serum was diluted 1:100 and analyzed for MIF content by sandwich ELISA (biolegend monoclonal anti-MIF and biotinylated anti-MIF antibodies). […] In the mice treated with MIF-GN3, a moderate increase in huMIF levels up to 20 ng/ml was seen, while in mice injected with PBS negative control, serum levels of up to 150 ng/ml were observed, evidencing a substantial decrease in huMIF levels as a consequence of the administration of MIF-GN3.

In assay [4] the test system is PC3 human prostate cancer cells. Kind of assay: Mouse model of prostate cancer (PC3 engraftment), tumor growth. It counts as in vivo. The note with it: nude mice engrafted with PC3 cells, treatment initiated immediately. An excerpt:
In this experiment, nude mice were engrafted with PC3 human prostate cancer cells. Treatment was then initiated immediately with either a non-bifunctional MIF inhibitor (3w), an anti-MIF antibody, or MIF-GN3.

Each structure is given as a SMILES string.

Turning to `O=C(CCOCC(COCCC(=O)NCCOCCOCCOCCOC[C@@]12CO[C@@H](O1)[C@H](NC(=O)C(F)(F)F)[C@@H](O)[C@H]2O)(COCCC(=O)NCCOCCOCCOCCOC[C@@]12CO[C@@H](O1)[C@H](NC(=O)C(F)(F)F)[C@@H](O)[C@H]2O)NC(=O)CCCOc1ccc2nc(-c3cn(-c4ccc(O)c(F)c4)nn3)ccc2c1)NCCOCCOCCOCCOC[C@@]12CO[C@@H](O1)[C@H](NC(=O)C(F)(F)F)[C@@H](O)[C@H]2O` [MIF-AcF3-3], the “MIF depleted from cell culture media” value at human MIF [1] is given as 95.3%.
Take `CC(=O)N[C@H]1[C@H](OCCOCCOCCNC(=O)CCOCC(COCCC(=O)NCCOCCOCCO[C@@H]2O[C@H](CO)[C@H](O)[C@H](O)[C@H]2NC(C)=O)(COCCC(=O)NCCOCCOCCO[C@@H]2O[C@H](CO)[C@H](O)[C@H](O)[C@H]2NC(C)=O)NC(=O)CNC(=O)CCCOc2ccc3nc(-c4cn(-c5ccc(O)c(F)c5)nn4)ccc3c2)O[C@H](CO)[C@H](O)[C@@H]1O` [MIF-GN3]: the “MIF internalization in lysosomes” value at human MIF [2] was “evidencing internalization in lysosomes”. Moreover, at human MIF [3] (nude mice injected with 5 μg recombinant human MIF, blood drawn over two hours), the “serum huMIF levels” value is given as “up to 20 ng/ml”. At human MIF [3] (nude mice, FIG. 5), the “depletion of injected human MIF from mice” value is given as “mediates the depletion of injected human MIF from mice”. For the same molecule, the tumor growth entry in assay [4] is listed as “slowing of tumor growth”.
